Data: patent publication US10292976B2, “Anti-malarial agent” (RIKEN, priority 2014, dated 2019)
pIC50: −log10 of the molar value. Like-named read-outs stand apart in the source and are kept apart here. Each block holds one compound with its values, some of them ahead of it.

What was measured:
[1] = test system: Plasmodium falciparum: 3D7 strain; assay: Antimalarial activity by LDH assay, 3D7 strain; format: cell-based; details: for antimalarial activity (LDH assay, FIG. 2): 10 nM to 10 μM
Description: Compounds that chelate metal ions in various modes (L1 to L25 in FIG. 1) were selected, and their antimalarial activities were evaluated by LDH assay. Since infection with malaria causes an increase in the LDH activity, the evaluation can be made based on the criteria that the lower the detected LDH activity, the higher the antimalarial activity.
(§1) The LDH assay was carried out according to the following procedure. That is, 0.5 μL of a solution of each compound in DMSO was added to 100 μL of a culture liquid of erythrocytes (88% RPMI solution; 2% erythrocytes, provided by the Japanese Red Cross Society; and 10% human serum, provided by the Japanese Red Cross Society) infected with falciparum malaria parasites (Plasmodium falciparum: 3D7 strain) (infection rate of erythrocytes, 0.3%). The resulting culture liquid was subjected to culture in a 96-well plate under an atmosphere of 5% CO2, 5% O2, and 90% N2 at 37° C. for three days. Subsequently, the culture liquid was cooled at −80° C. for three hours, and then returned to room temperature. After addition of 150 μL of an LDH enzyme reaction liquid (0.15 mg/mL diaphorase, 37.5 μL/mL of 50% sodium lactate, 0.17 mg/mL NBT, 0.11 mg/mL APAD, 0.16 mL/mL of 1 M Tris-HCl (pH 8), and 8.3 μL/mL of Tween 20), the absorbance at 620 nm was measured.
By the same procedure as in Experiment 1, erythrocytes infected with malaria were treated with L6 (about 40 nM) together with iron ion (about 50 μM), copper ion (about 1 μM), or zinc ion (about 10 μM), and the antimalarial activity was evaluated by LDH assay.
(§2) According to the same procedure as in Experiment 1, the antimalarial activities of metal complexes (M-L6) synthesized by mixing various kinds of metal ions (MSO4: M=Zn, Fe, Cu, Co, Ni, or Mn) with L6 at a molar ratio of 1:1 were evaluated by LDH assay.

[2] = test system: HeLa: human cervical cancer cells; assay: Cytotoxicity by WST-8 assay, HeLa; format: cell-based; details: Table 3, 48 hours, WST-8
Description: (§3) After treating various kinds of cells (HEK293T: human embryonic kidney cells; HeLa: human cervical cancer cells; NIH3T3: mouse fibroblast cells; tsNRK: rat kidney cells; and 3Y1: rat fibroblasts) with a metal chelator for 48 hours, the cytotoxicities of the cells were evaluated by WST-8 assay.
(§4) Subsequently, the following cell types: HL60 (human promyelocytic leukemia cells), HeLa (human cervical cancer cells), C3H10T1/2 (murine multipotential mesenchymal cells), and HEK293 (human embryonic kidney 293 cells); were treated with metal complexes M-L6 (M=Zn, Fe, Cu, Co, Ni, and Mn) for 48 hours, and then subjected to WST-8 assay to perform evaluation of the cytotoxicity of each kind of metal complex.

[3] = test system: HL60 (human promyelocytic leukemia cells); assay: Cytotoxicity by WST-8 assay, HL60; format: cell-based; details: Table 3, 48 hours
Description: as §4

[4] = test system: C3H10T1/2 (murine multipotential mesenchymal cells); assay: Cytotoxicity by WST-8 assay, C3H10T1/2; format: cell-based; details: Table 3, 48 hours
Description: as §4

[5] = test system: HEK293 (human embryonic kidney 293 cells); assay: Cytotoxicity by WST-8 assay, HEK293; format: cell-based; details: Table 3, 48 hours
Description: as §4

[6] = test system: drug-resistant malaria parasite K1 strain; assay: Antimalarial activity by LDH assay, K1 strain; format: cell-based, Plasmodium falciparum
Description: as §1, §2
According to the same procedure as in Experiment 1, the antimalarial activities of L18 and di-2-pyridylketone 4,4-dimethyl-3-thiosemicarbazone (Sigma) against the malaria parasite 3D7 strain and the drug-resistant malaria parasite K1 strain were evaluated by LDH assay.
According to the same procedure as in Experiment 1, the antimalarial activities of 4′-(4-Pyridyl)-2,2′:6′,2″-terpyridine (Tokyo Chemical Industry) against the malaria parasite 3D7 strain and the drug-resistant malaria parasite K1 strain were evaluated by LDH assay.

[7] = test system: Dd2 strain (drug-resistant malaria parasites); assay: Antimalarial activity by LDH assay, Dd2 strain; format: cell-based, Plasmodium falciparum; details: Table 2, LDH assay, Experiment 6; read-out: IC50 antimalarial activity, Dd2
[8] = test system: HL60, HeLa, C3H10T1/2, and HEK293; assay: Cytotoxicity by WST-8 assay, summary for the four cell types of Experiment 6; format: cell-based; details: C3H10T1/2, HEK293, 48 hours
Description: as §4

[9] = test system: mouse malaria parasites (Plasmodium berghei ANKA strain); assay: Life-prolonging effect in malaria-infected mice, oral administration; format: in vivo; details: oral 200 mg/kg on Day 1, Day 3, and Day 6
Description: To mice (7 weeks old, Balb/c, male), erythrocytes infected with mouse malaria parasites (Plasmodium berghei ANKA strain) (total number of erythrocytes per mouse, about 10^7; rate of malaria-infected erythrocytes, 0.3%) were intraperitoneally injected. L6 was administered (20 mg/kg, intraperitoneal injection) to each of the thus obtained malaria-infected mice, and the rate of malaria-infected erythrocytes was measured. As a result, on Day 2 to Day 6 after the infection, the infection rate tended to increase in the negative control to which only DMSO was administered. […] The effect of L6 to reduce the infection rate was almost equivalent to the effect of an existing drug, chloroquine (CQ).
To malaria-infected mice obtained by the same procedure as in Experiment 4, an aqueous solution of L6 or the zinc complex Zn-L6 was orally administered (at a dose of 200 mg/kg on Day 1, Day 3, and Day 6; N=6), and changes in the number of surviving individuals were investigated. […] That is, it is thought that, by formation of metal complex with zinc ion, L6 can remarkably suppress the toxicity in vivo while sufficiently maintaining the antimalarial activity.

[10] = Cytotoxicity by WST-8 assay, HEK293T; format: cell-based; details: human, HEK293T cells
Description: as §3

[11] = Cytotoxicity by WST-8 assay, tsNRK; format: cell-based; details: rat, tsNRK cells
Description: as §3

[12] = Cytotoxicity by WST-8 assay, 3Y1; format: cell-based; details: rat, 3Y1 cells, 3Y1, 48 hours
Description: as §3

[13] = Cytotoxicity by WST-8 assay, HeLa; format: cell-based, human; details: human, HeLa cells, HeLa, 48 hours, read-out: IC50 value, cytotoxicity
Description: as §3, §4

[14] = Cytotoxicity by WST-8 assay, NIH3T3; format: cell-based; details: mouse, NIH3T3 cells, NIH3T3, 48 hours
Description: as §3

[15] = test system: malaria parasites; details: cited from earlier work
[16] = Table 2, LDH assay, Experiment 6, read-out: IC50 antimalarial activity, 3D7
[17] = Plasmodium falciparum, 3D7, 3D7 strain, values in text, read-out: IC50 value for the antimalarial activity based on the LDH assay
[18] = Plasmodium falciparum, LDH assay, values in text, read-out: IC50 antimalarial activity against the K1 strain

Structure (SMILES): O=S(=O)([O-])[O-].[Cu+2].c1ccc(CN(Cc2ccccn2)Cc2ccccn2)nc1 [Cu-L6]
- pIC50 [1, 16]: 6.92
- pIC50 [2]: 4.89
- pIC50 [3]: 5.30
- pIC50 [4]: 4.92
- pIC50 [5]: 5.22

- pIC50 [1, 17]: ~7.15
Structure (SMILES): O=C(Nc1cccc(CN(Cc2ccccn2)Cc2ccccn2)n1)c1ccccc1 [Bis(2-pyridylmethyl)(6-benzamide-2-pyridylmethyl)amine]

Structure (SMILES): O=S(=O)([O-])[O-].[Mn+2].c1ccc(CN(Cc2ccccn2)Cc2ccccn2)nc1 [Mn-L6]
- pIC50 [1, 16]: 6.96
- pIC50 [2]: 5.35
- pIC50 [3]: 5.82
- pIC50 [4]: 5.38
- pIC50 [5]: 5.43

- pIC50 [1, 17]: ~6.55
- pIC50 [6, 18]: ~6.92
Structure (SMILES): c1ccc(-c2cccc(-c3ccccn3)n2)nc1 [L18, 2,2′:6′,2″-Terpyridine]
- antimalarial activity (LDH assay, FIG. 2) ([1]; result in words): relatively strong antimalarial activity

Structure (SMILES): O=S(=O)([O-])[O-].[Zn+2].c1ccc(CN(Cc2ccccn2)Cc2ccccn2)nc1 [Zn-L6]
- antimalarial activity of metal complex compared to L6 alone ([1]; LDH assay, metal ion:L6 molar ratio 1:1, result in words): almost the same as that in the case of L6 alone
- pIC50 [1, 16]: 7.03
- pIC50 ([6]; Table 2, LDH assay, Experiment 6, read-out: IC50 antimalarial activity, K1): 7.05
- pIC50 [7]: 6.78
- pIC50 [2]: < 4.00
- pIC50 [3]: < 4.00
- pIC50 [4]: < 4.00
- pIC50 [5]: < 4.00
- pIC50 [8]: < 4.00
- cure / infection rate of malaria [9]: completely cured mice, in which the infection rate of malaria was 0%, could be found
- life-prolonging effect (number of surviving individuals) [9]: significantly better life-prolonging effect than in the control

- pIC50 ([1]; Plasmodium falciparum, 3D7, read-out: IC50 value for the antimalarial activity based on the LDH assay): ~7.35
Structure (SMILES): CCN(CC)CCCC(C)Nc1ccnc2cc(Cl)ccc12 (stereo not drawn) [chloroquine, reference compound]

Structure (SMILES): O=S(=O)([O-])[O-].[Ni+2].c1ccc(CN(Cc2ccccn2)Cc2ccccn2)nc1 [Ni-L6]
- pIC50 [1, 16]: 6.13
- pIC50 [2]: 4.49
- pIC50 [3]: 4.80
- pIC50 [4]: 4.27
- pIC50 [5]: 4.32

Structure (SMILES): Nc1cc2cccnc2c2ncccc12 [L3, (1,10)-Phenanthrolin-5-amine]
- IC50 at 48 h ([10]; 1st measurement): 0.49 µM
- IC50 at 48 h ([10]; 2nd measurement): 0.47 µM
- IC50 at 48 h ([11]; 1st measurement): 6.12 µM
- IC50 at 48 h ([11]; 2nd measurement): 3.08 µM
- IC50 at 48 h ([12]; 1st measurement): 0.73 µM
- IC50 at 48 h ([12]; 2nd measurement): 0.67 µM

Structure (SMILES): c1ccc(-c2ccnc3c2ccc2c(-c4ccccc4)ccnc23)cc1 [L17, 4,7-Diphenyl-1,10-phenanthroline]
- antimalarial activity (LDH assay, FIG. 2) ([1]; result in words): relatively strong antimalarial activity

Structure (SMILES): O=S(=O)([O-])[O-].[Co+2].c1ccc(CN(Cc2ccccn2)Cc2ccccn2)nc1 [Co-L6]
- pIC50 [1, 16]: 6.26
- pIC50 [2]: 4.74
- pIC50 [3]: 5.18
- pIC50 [4]: 4.74
- pIC50 [5]: 4.69

- pIC50 [1, 17]: ~6.80
- pIC50 [6, 18]: ~7.15
Structure (SMILES): c1ccc(-c2cc(-c3ccncc3)cc(-c3ccccn3)n2)nc1 [4′-(4-Pyridyl)-2,2′:6′,2″-terpyridine]

Structure (SMILES): c1ccc(CN(CCN(Cc2ccccn2)Cc2ccccn2)Cc2ccccn2)nc1 [L7, N,N,N′,N′-Tetrakis(2-pyridylmethyl)ethylenediamine, reference compound]
- IC50 at 48 h ([10]; 1st measurement): 1.99 µM
- IC50 at 48 h ([10]; 2nd measurement): 3.14 µM
- IC50 at 48 h ([13]; 1st measurement (Table 1)): 5.53 µM
- IC50 at 48 h ([13]; 2nd measurement (Table 1)): 4.96 µM
- IC50 at 48 h ([14]; 1st measurement): 1.66 µM
- IC50 at 48 h ([14]; 2nd measurement): 1.79 µM
- IC50 at 48 h ([11]; 1st measurement): 1.84 µM
- IC50 at 48 h ([11]; 2nd measurement): 2.09 µM
- IC50 at 48 h ([12]; 1st measurement): 5.11 µM
- IC50 at 48 h ([12]; 2nd measurement): 4.93 µM
- inhibition of infection with malaria parasites ([15]; Non-patent Document 1): inhibits infection with malaria parasites

Structure (SMILES): O=S(=O)([O-])[O-].[Fe+2].c1ccc(CN(Cc2ccccn2)Cc2ccccn2)nc1 [Fe-L6]
- pIC50 [1, 16]: 6.72
- pIC50 [2]: 5.02
- pIC50 [3]: 5.32
- pIC50 [4]: 5.02
- pIC50 [5]: 5.21

Structure (SMILES): CC(=O)N(O)CCCCCNC(=O)CCC(=O)N(O)CCCCCNC(=O)CCC(=O)N(O)CCCCCN [DFO, desferrioxamine]
- pIC50 ([15]; Non-patent Document 3, read-out: antimalarial activity IC50): 4.68

- pIC50 [1, 17]: ~8.40
- pIC50 [6, 18]: ~8.52
Structure (SMILES): CN(C)C(=S)NN=C(c1ccccn1)c1ccccn1 [di-2-pyridylketone 4,4-dimethyl-3-thiosemicarbazone]

- pIC50 [1, 17]: ~8.70
Structure (SMILES): CN(C(=S)NN=C(c1ccccn1)c1ccccn1)C1CCCCC1 [di-2-pyridylketone-4-cyclohexyl-4-methyl-3-thiosemicarbazone]

- pIC50 [1, 17]: ~7.80
Structure (SMILES): C[C@@H]1CC[C@H]2[C@@H](C)C(=O)O[C@@H]3O[C@@]4(C)CC[C@@H]1[C@]32OO4 [artemisinin, reference compound]
